| Structure (SMILES) | melting point [°C] |
| --- | --- |
| CCc1nc2c(N)nc3c(c2n1CCOCCS(C)(=O)=O)CCCC3 [Example 12, 2-Ethyl-1-{2-[2-(methylsulfonyl)ethoxy]ethyl}-6,7,8,9-tetrahydro-1H-imidazo[4,5-c]quinolin-4-amine] | 146 to 148 |
| CCOCc1nc2c(N)nc3c(c2n1CC(C)(C)OCCS(C)(=O)=O)CCCC3 [Example 28, 2-(Ethoxymethyl)-1-{2-methyl-2-[2-(methylsulfonyl)ethoxy]propyl}-6,7,8,9-tetrahydro-1H-imidazo[4,5-c]quinolin-4-amine] | 150 to 153 |
| CC(C)(Cn1cnc2c(N)nc3c(c21)CCCC3)OCCS(C)(=O)=O [Example 31, 1-{2-Methyl-2-[2-(methylsulfonyl)ethoxy]propyl}-6,7,8,9-tetrahydro-1H-imidazo[4,5-c]quinolin-4-amine] | 219 to 223 |
| Cc1nc2c(N)nc3c(c2n1CC(C)(C)OCCS(C)(=O)=O)CCCC3 [Example 30, 2-Methyl-1-{2-methyl-2-[2-(methylsulfonyl)ethoxy]propyl}-6,7,8,9-tetrahydro-1H-imidazo[4,5-c]quinolin-4-amine] | 226 to 229 |
| CCCc1nc2c(N)nc3c(c2n1CC(C)(C)OCCS(C)(=O)=O)CCCC3 [Example 35, 1-{2-Methyl-2-[2-(methylsulfonyl)ethoxy]propyl}-2-propyl-6,7,8,9-tetrahydro-1H-imidazo[4,5-c]quinolin-4-amine] | 188 to 190 |
| CCc1nc2c(N)nc3c(c2n1CC(C)(C)OCCS(C)(=O)=O)CCCC3 [Example 37, 2-Ethyl-1-{2-methyl-2-[2-(methylsulfonyl)ethoxy]propyl}-6,7,8,9-tetrahydro-1H-imidazo[4,5-c]quinolin-4-amine] | 225 to 227 |
| CCOCc1nc2c(N)nc3c(c2n1CC1(OCCS(C)(=O)=O)CCC1)CCCC3 [Example 27, 2-(Ethoxymethyl)-1-({1-[2-(methylsulfonyl)ethoxy]cyclobutyl}methyl)-6,7,8,9-tetrahydro-1H-imidazo[4,5-c]quinolin-4-amine] | 186 to 188 |
| COCc1nc2c(N)nc3c(c2n1CC(C)(C)OCCS(C)(=O)=O)CCCC3 [Example 39, 2-(Methoxymethyl)-1-{2-methyl-2-[2-(methylsulfonyl)ethoxy]propyl}-6,7,8,9-tetrahydro-1H-imidazo[4,5-c]quinolin-4-amine] | 195 to 197 |
| Cc1nc2c(N)nc3c(c2n1CCOCCS(C)(=O)=O)CCCC3 [Example 10, 1-{2-[2-(Methylsulfonyl)ethoxy]ethyl}-2-methyl-6,7,8,9-tetrahydro-1H-imidazo[4,5-c]quinolin-4-amine] | 173 to 175 |
| CC(C)(Cn1cnc2c(N)nc3ccccc3c21)OCCS(C)(=O)=O [Example 29, 1-{2-Methyl-2-[2-(methylsulfonyl)ethoxy]propyl}-1H-imidazo[4,5-c]quinolin-4-amine] | 261 to 264 |
| CCOCc1nc2c(N)nc3ccccc3c2n1CC(C)(C)OCCS(=O)(=O)c1ccccc1 [Example 8, 2-Ethoxymethyl-1-{2-[2-(phenylsulfonyl)ethoxy]-2-methylpropyl}-1H-imidazo[4,5-c]quinolin-4-amine] | 187 to 189 |

More lines, now with the values ahead:

| melting point [°C] | Structure (SMILES) |
| --- | --- |
| 203 to 206 | CCCc1nc2c(N)nc3ccccc3c2n1CC(C)(C)OCCS(C)(=O)=O [Example 22, 1-{2-Methyl-2-[2-(methylsulfonyl)ethoxy]propyl}-2-propyl-1H-imidazo[4,5-c]quinolin-4-amine] |
| 150 to 151 | CCCc1nc2c(N)nc3ccccc3c2n1CCOCCCS(=O)(=O)c1ccccn1 [Example 16, 2-Propyl-1-(2-{3-[(pyridin-2-yl)sulfonyl]propoxy}ethyl)-1H-imidazo[4,5-c]quinolin-4-amine] |
| 84 to 86 | CCCCCCCCCCS(=O)(=O)CCCOCCn1c(CCC)nc2c(N)nc3ccccc3c21 [Example 20, 1-{2-[3-(Decane-1-sulfonyl)propoxy]ethyl}-2-propyl-1H-imidazo[4,5-c]quinolin-4-amine] |
| 183 to 185 | CCOCc1nc2c(N)nc3ccccc3c2n1CC(C)(C)OCCS(C)(=O)=O [Example 9, 2-Ethoxymethyl-1-{2-[2-(methylsulfonyl)ethoxy]-2-methylpropyl}-1H-imidazo[4,5-c]quinolin-4-amine] |
| 169 to 171 | CCOCc1nc2c(N)nc3ccccc3c2n1CC1(OCCS(C)(=O)=O)CC1 [Example 34, 2-(Ethoxymethyl)-1-({1-[2-(methylsulfonyl)ethoxy]cyclopropyl}methyl)-1H-imidazo[4,5-c]quinolin-4-amine] |
| 168 to 170 | CCCCc1nc2c(N)nc3ccccc3c2n1CCOCCS(C)(=O)=O [Example 2, 2-Butyl-1-{2-[2-(methylsulfonyl)ethoxy]ethyl}-1H-imidazo[4,5-c]quinolin-4-amine] |
| 145 to 148 | CS(=O)(=O)CCOCCn1cnc2c(N)nc3ccccc3c21 [Example 3, 1-{2-[2-(Methylsulfonyl)ethoxy]ethyl}-1H-imidazo[4,5-c]quinolin-4-amine] |
| 206 to 209 | CCc1nc2c(N)nc3ccccc3c2n1CC(C)(C)OCCS(C)(=O)=O [Example 36, 2-Ethyl-1-{2-methyl-2-[2-(methylsulfonyl)ethoxy]propyl}-1H-imidazo[4,5-c]quinolin-4-amine] |
| 159 to 160 | CCCc1nc2c(N)nc3ccccc3c2n1CCOCCCS(=O)(=O)c1ccccc1C [Example 15, 1-(2-{3-[(2-Methylphenyl)sulfonyl]propoxy}ethyl)-2-propyl-1H-imidazo[4,5-c]quinolin-4-amine] |
| 163 to 165 | CCOCc1nc2c(N)nc3ccccc3c2n1CC1(OCCS(C)(=O)=O)CCCC1 [Example 23, 2-(Ethoxymethyl)-1-({1-[2-(methylsulfonyl)ethoxy]cyclopentyl}methyl)-1H-imidazo[4,5-c]quinolin-4-amine] |
| 221 to 223 | CCOCc1nc2c(N)nc3ccccc3c2n1CC1(OCCS(C)(=O)=O)CCC1 [Example 26, 2-(Ethoxymethyl)-1-({1-[2-(methylsulfonyl)ethoxy]cyclobutyl}methyl)-1H-imidazo[4,5-c]quinolin-4-amine] |
| 158 to 160 | CCCCCCc1nc2c(N)nc3ccccc3c2n1CCOCCS(C)(=O)=O [Example 25, 2-Hexyl-1-{2-[2-(methylsulfonyl)ethoxy]ethyl}-1H-imidazo[4,5-c]quinolin-4-amine] |
| 196 to 198 | CCCCc1nc2c(N)nc3ccccc3c2n1CC(C)(C)OCCS(C)(=O)=O [Example 32, 2-Butyl-1-{2-methyl-2-[2-(methylsulfonyl)ethoxy]propyl}-1H-imidazo[4,5-c]quinolin-4-amine] |
| 150 to 152 | CCCc1nc2c(N)nc3ccccc3c2n1CCOCCS(C)(=O)=O [Example 4, 1-{2-[2-(Methylsulfonyl)ethoxy]ethyl}-2-propyl-1H-imidazo[4,5-c]quinolin-4-amine] |
| 153 to 155 | CCCc1nc2c(N)nc3c(c2n1CCOCCS(C)(=O)=O)CCCC3 [Example 11, 1-{2-[2-(Methylsulfonyl)ethoxy]ethyl}-2-propyl-6,7,8,9-tetrahydro-1H-imidazo[4,5-c]quinolin-4-amine] |
| 160 to 161 | CCCc1nc2c(N)nc3ccccc3c2n1CCOCCCS(=O)(=O)c1ccccc1 [Example 13, 1-{2-[3-(Phenylsulfonyl)propoxy]ethyl}-2-propyl-1H-imidazo[4,5-c]quinolin-4-amine] |

Reference: patent US7939526B2, “Sulfone substituted imidazo ring ethers” (3M Innovative Properties Company, priority 2003, dated 2011)
